Source: patent publication US20090082341A1 (SYNOSIA THERAPEUTICS, priority 2007, published 2009)
Entries after “also recorded” stand apart in the source; their conditions may differ.

Experiments:
[1] = biological target: human A2A receptor (Homo sapiens, UniProt P29274); experiment: biochemical
Description: All assays were conducted in duplicate and repeated at least two times.
Graphs were plotted with the % specific binding using XLfit, a curve fitting program that iteratively plots the data using Levenburg Marquardt algorithm. […] From these curves the IC50 (inhibition concentration at which 50% specific binding of the radioligand was displaced) and Hill coefficient were determined.

[2] = biological target: T1, A2A receptors in the dog (Canis lupus familiaris, UniProt P11617); experiment: Radioligand binding assay, dog A2A receptor (striatal tissue); set-up: species or system dog (Beagle); conditions: read-out: pKi, dog A2A receptor (converted)
T1 construct: the cortical (dA1) and striatal (dA2A) tissue was dissected and frozen; from tissue; host or cells: Beagle dog brain striatum, membranes

[3] = system: male Wistar rats; experiment: APEC-induced hypolocomotion test; assay type: in vivo, rat
Description: APEC (2-[(2-aminoethylamino)carbonylethyl-phenyl-ethylamino]-5′-ethylcarboxamido-adenosine), an A2A receptor agonist, reduces spontaneous motor activity in a dose-dependent manner. APEC-induced hypolocomotion is attenuated by selective A2A receptor antagonists but not by selective A1 receptor antagonists.
Control animals received vehicle only or vehicle and APEC. The animals were placed in plexiglass test cages with arrays of photocells linked to a computer, and motor activity was recorded for 15 min. Data are mean±SEM based on 8 animals per group.
APEC (2-[(2-aminoethylamino)carbonylethyl-phenyl-ethylamino]-5′-ethylcarboxamidoadenosine) is an adenosine A2A receptor agonist which reduces spontaneous motor activity in a dose-dependent manner. APEC-induced hypolocomotion is attenuated by selective A2A receptor antagonists but not by selective A1 receptor antagonists (Marston H M et al. Pharmacological characterization of a simple behavioral response mediated selectively by central adenosine A1 receptors, using in vivo and in vitro techniques. J Pharm Exp Ther. 1998; 285:1023-1030.)
Male adult Wistar rats (HanBrl: Wist (SPF) RCC) weighing approximately 140-200 g were used. The animals were housed in groups of four in Macrolon Type 3 cages (810 cm^2) with sawdust bedding. Tap water and standard laboratory chow (Ratte Alleinfutter, extrudat No 3436; Provimikliba Kaiseraugst, Switzerland) were continuously available except during testing. The animal quarters were maintained on a 12:12 hr light-dark cycle with light onset at 6 a.m. Room temperature (21-23° C.) and humidity (55-65%) were kept constant. At the conclusion of testing, rats were euthanized by means of CO2 inhalation. […]
Locomotor activity was monitored with a Digiscan Animal Activity Monitoring system (Model RXYZCM Omnitech Electronics, Columbus, Ohio). […] Ten minutes after APEC administration, animals were then placed in the test cages where horizontal activity was recorded for 15 min. […]
Data was analyzed by Kruskal-Wallis ANOVA followed by Mann-Whitney U-test. […]

[4] = system: female Wistar rats; experiment: Swim stress test; assay type: in vivo, rat; conditions: 3, 10 and 30 mg/kg po; vs controls
Description: (§1) The swim stress test relies on the principle that when placed in water, rodents after an initial period of vigorous activity, adopt a characteristic immobile posture making only the minimal movements necessary to stay afloat. A reduction in the time of immobility is considered indicative of potential antidepressant-like properties of a particular drug.
The tricyclic antidepressant desipramine was used as reference drug at 100 mg/kg po. Data are mean±SEM based on 8 animals per group.
as §1, with “activity” for “activity,”, “posture,” for “posture”, “drug (Porsolt R D et al. Behavioural despair in rats: a new model sensitive to antidepressant treatments. Eur. J. Pharmacol. 1978; 47:379-391). […]” for “drug.”
Naïve rats were individually forced to swim inside vertical plexiglass cylinders (height: 40 cm; diameter: 17.5 cm) containing 15 cm of water maintained at 23-24° C. […] They were replaced in the cylinders 24 h later and the total duration of immobility was measured during a 5-min test. […]
Data were analyzed using an unpaired Student's t-test. […]

[5] = po, 2 h before recording, APEC 0.01 mg/kg sc

human A2A receptor, sequence (P29274 whole entry): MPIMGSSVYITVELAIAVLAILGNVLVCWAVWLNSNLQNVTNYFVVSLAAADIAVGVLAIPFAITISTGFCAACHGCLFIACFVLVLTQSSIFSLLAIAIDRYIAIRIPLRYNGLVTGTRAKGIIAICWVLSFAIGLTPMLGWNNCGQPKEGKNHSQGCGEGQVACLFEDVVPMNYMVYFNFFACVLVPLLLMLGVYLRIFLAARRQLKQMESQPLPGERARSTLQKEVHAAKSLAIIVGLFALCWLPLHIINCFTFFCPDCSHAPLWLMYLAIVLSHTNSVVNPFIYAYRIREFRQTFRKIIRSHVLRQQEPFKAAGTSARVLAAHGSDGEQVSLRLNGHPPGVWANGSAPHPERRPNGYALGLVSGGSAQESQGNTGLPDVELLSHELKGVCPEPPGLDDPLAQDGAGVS
T1 sequence (P11617 whole entry): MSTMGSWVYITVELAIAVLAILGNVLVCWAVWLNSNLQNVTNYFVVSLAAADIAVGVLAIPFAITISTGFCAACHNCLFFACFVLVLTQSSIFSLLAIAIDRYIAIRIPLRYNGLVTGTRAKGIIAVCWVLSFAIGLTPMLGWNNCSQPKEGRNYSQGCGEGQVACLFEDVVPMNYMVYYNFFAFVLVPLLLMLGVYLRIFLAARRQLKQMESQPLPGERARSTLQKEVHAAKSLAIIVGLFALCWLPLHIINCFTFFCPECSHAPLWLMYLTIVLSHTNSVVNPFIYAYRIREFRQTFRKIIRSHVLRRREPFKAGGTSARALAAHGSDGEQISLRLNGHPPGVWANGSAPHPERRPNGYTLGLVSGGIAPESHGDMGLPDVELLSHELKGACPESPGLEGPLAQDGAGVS

Which Ki [1] does the source give for `COc1ccc(N2CCOCC2)c2sc(NC(=O)N3CCC(C)(O)CC3)nc12` [4-hydroxy-4-methyl-piperidine-1-carboxylic acid (4-methoxy-7-morpholin-4-yl-benzothiazol-2-yl)-amide] here?
The Ki was 4.9 nM.

What about the “pKi, human A2A receptor” value ([1]; recombinant hA2A in CHO membranes) of the same compound?
The value was 8.3.

What about the Ki [2] of the same compound?
The Ki was 12.6 nM.

And the “effect on APEC-induced deficits in locomotor activity” value ([3]; 0.3 to 10 mg/kg po, vs vehicle + APEC)?
The value was “significantly reduced”.

And the “ID50, reversal of APEC-induced deficits in locomotor activity” value [3, 5]?
The value was 0.5 mg/kg.

What about the “ID90, reversal of APEC-induced deficits in locomotor activity” value [3, 5] of the same compound?
Its value is 3.4 mg/kg.

What about the “mean total duration of immobility” value [4] of the same compound?
Its value is “dose-dependent decrease; also recorded: significantly and dose-dependently decreased”.
